Results from patent US6040291A, “Antimicrobial peptide” (Seikagaku Corporation, priority 1998, dated 2000).

Tested on: E. coli O157:H7
Assay: Antimicrobial activity on E. coli O157:H7 (CFU count, IC50)
Format: cell-based
Conditions: Table 6
Method: Measurement method for antimicrobial activity: For the measurement of antimicrobial activity, E. coli [E. coli O157:H7 (collected from an E. coli O157 patients in Okayama prefecture, Kanagawa prefecture and Morioka city of Iwate Prefecture)], Klebsiella or Methicillin resistant Staphylococcus aureus; MRSA] was used.
These bacteria were grown in a liquid medium (Tryptosoy broth; manufactured by Eiken Kagaku). The bacteria cells in a logarithmic growth phase were collected, washed with PBS (pH 7.2), and adjusted to a final concentration of 5 ×10^3 to 1×10^4 cells/ml. To 450 μl of cell suspension, 50 μl of samples (peptide) in various concentrations were each added and mixtures were incubated at 37° C. for 1 hour. After the incubation, 100 μl of each reaction mixture was spread on an agarose medium (Nutrient agar; manufactured by Eiken Kagaku). This was incubated at 37° C. for 24 hours and the colony-forming unit (CFU) was counted to obtain 50% inhibition concentration (IC50).
Polymyxin B (known antimicrobial agent), A1, the peptide of the present invention (b), A3, the peptide of the present invention (d), A5 and A6 were used as samples and their antimicrobial activities on E. coli [E. coli O157:H7 (collected from E. coli O157 patients in Okayama prefecture, Kanagawa prefecture and Morioka city of Iwate Prefecture)] were examined by the above-described measurement method. […]

Substance: Polymyxin B
- Antimicrobial Activity on E. Coli O157:H7 (IC50) (isolate Kanagawa): < 2.5 µg/mL
- Antimicrobial Activity on E. Coli O157:H7 (IC50) (isolate Okayama): 0.2 µg/mL
